Here are results for 5 molecules from patent publication US12042478B2, “(R)-2-[(2H-1,3-benzodioxol-5-yl)methyl]pyrrolidine and processes for preparation, compositions and uses thereof” (Pharmala Biotech Inc., priority 2022, dated 2024).

For data set [1], the system named is C57 and BTBR mice. Briefly: Social preference procedure: social novelty preference test. Type of data set: in vivo, mouse. On the procedure: (§1) All drugs were dissolved in physiological 0.9% saline and administered at a constant volume of 1 ml/100 g body weight. Because all drugs utilized in these studies were synthesized as hydrochloride (HCl) salts, they were weighed as salts prior to the preparation of all solutions. All drugs at all concentrations are readily dissolved in an aqueous solution at normal pH. Injections of all drugs were administered intraperitoneally (IP) to mimic pharmacokinetic parameters typical of oral administration, without the behaviour-impairing effects of gavage stress.
(§2) This assay was conducted in adult male C57 and BTBR mice (n=6 per group) in a dedicated conditioning room where ambient light, sound, and human contact were tightly controlled.
Social preference chambers consisted of two polycarbonate boxes (13.5 cm wide×22.5 cm tall×31.0 cm deep), floored with rough-textured black ABS plastic, and connected to one another by a 1.25″ PVC T-junction. An infrared photobeam emitter/detector array was mounted at each intersection of the T-junction and each preference compartment, and as a mouse traversed the apparatus, it would break the photobeam upon entry to or exit from each preference compartment. Beam breaks started or stopped a counter on an interfaced computer, allowing automated collection of time spent in each compartment. […]

Data set [2] relates to C57 and BTBR mice. The data set can be described thus: Conditioned place preference. In kind it is in vivo, mouse. The procedure:
The same 2-compartment chambers as described above in the social preference studies for conditioned place preference. For these studies, compartments are differentiated by floor texture (rough black plastic vs steel punch plate) and wall pattern (vertical vs. horizontal stripes.) An initial preference/habituation test was first run where mice were able to freely traverse the apparatus for 30 minutes. The following day, mice were assigned to receive saline in one compartment and drug in the other. Saline pairings occurred in the morning, drug pairings occurred in the afternoon, and were separated by at least 4 hours, during which time mice returned to their home cages. Three such pairings were performed, where mice were injected, returned to the home cage for a 15 min pretreatment period, then confined to the injection-appropriate compartment for 30 minutes. Half the subjects (within strain) received drug pairings on the plastic floor+vertical stripes side, and the other half received drug pairings on the punch plate floor+horizontal stripes side. […] The post-conditioning preference test was identical to the initial preference/habituation session, where mice were freely able to traverse the apparatus for 30 minutes. Time spent in each compartment was recorded, and expressed as a preference score for the drug paired side (calculated as time spent in that compartment during the post-test—time spent there during the pre-test.) All preference and conditioning sessions were conducted under the same low light conditions as in the social preference tests.

Data set [3] deals with DAT (Homo sapiens, UniProt Q01959). The data set can be described thus: QSAR model predicted IC50, DAT. As to conditions: ratio = 1/DAT IC50:1/SERT IC50, from predicted IC50. The procedure: In silico studies (QSAR and docking) are useful tools to understand drug mechanisms, and they are relatively cheaper and faster than experiments. A QSAR model was created for each monoamine transporter. Additionally, the docking properties of phenethylamines were investigated.
DAT, sequence (Q01959 whole entry, species assumed): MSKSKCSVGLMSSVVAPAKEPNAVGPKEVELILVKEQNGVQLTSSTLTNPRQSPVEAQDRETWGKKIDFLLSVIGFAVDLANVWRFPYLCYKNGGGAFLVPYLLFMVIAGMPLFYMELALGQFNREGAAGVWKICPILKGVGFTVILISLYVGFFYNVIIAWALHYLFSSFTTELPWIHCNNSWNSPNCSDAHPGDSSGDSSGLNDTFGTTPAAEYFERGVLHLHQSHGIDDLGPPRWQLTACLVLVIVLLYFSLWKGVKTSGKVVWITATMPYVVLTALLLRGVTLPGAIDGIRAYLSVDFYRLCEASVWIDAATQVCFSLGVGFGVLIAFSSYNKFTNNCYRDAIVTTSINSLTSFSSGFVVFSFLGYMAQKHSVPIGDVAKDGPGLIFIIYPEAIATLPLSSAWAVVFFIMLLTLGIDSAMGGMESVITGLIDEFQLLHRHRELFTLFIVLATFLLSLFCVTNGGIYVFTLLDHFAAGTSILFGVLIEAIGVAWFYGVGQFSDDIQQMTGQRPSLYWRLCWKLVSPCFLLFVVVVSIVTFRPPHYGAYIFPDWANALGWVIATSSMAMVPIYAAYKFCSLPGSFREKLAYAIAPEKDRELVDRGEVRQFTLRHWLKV
QSAR: DAT, SERT and NET IC50 values were collected from the literature for 73 phenethylamines. Three different software's were used for descriptor calculations, and almost 2000 descriptors were calculated. Highly correlated descriptors were eliminated before multi-linear regression (MLR) analysis. All descriptors were merged with experimental inhibition values in QSARiNS software. The multi-Criteria Decision-Making tool of QSARiNS was used to pick the best model.
The predicted IC^50 (mM) values of the test molecules generated based on the QSAR developed as described above are presented in Table 4.

Data set [4] relates to C57 and BTBR mice. Briefly: Compartment entries during social novelty test (proxy for locomotor stimulant effects). Type of data set: in vivo, mouse. As to conditions: 1 mg/kg, C57 mice, relative to saline. An excerpt: (§3) Social preference chambers consisted of two polycarbonate boxes (13.5 cm wide×22.5 cm tall×31.0 cm deep), floored with rough-textured black ABS plastic, and connected to one another by a 1.25″ PVC T-junction. An infrared photobeam emitter/detector array was mounted at each intersection of the T-junction and each preference compartment, and as a mouse traversed the apparatus, it would break the photobeam upon entry to or exit from each preference compartment. Beam breaks started or stopped a counter on an interfaced computer, allowing automated collection of time spent in each compartment. At the end of each test, data were reported as time (in seconds) spent in each compartment, the number of entries into each compartment, and the average time spent in each compartment following an entry. Social preference tests were conducted in an iterative manner, with each test subject completing four distinct phases as described below. Between testing sessions, chambers were sanitized by wiping the insides with a disinfectant product provided by the UAMS Department of Laboratory Animal Medicine. At the end of the week (upon completion of all phases of the procedure), each apparatus was disassembled and all parts were sanitized. No food or water were available during social preference sessions, but were available in the home cage immediately afterwards.
Quantifying total entries into the preference compartments provides a proxy measurement for locomotor stimulant effects of the various doses of the various test drugs. This establishes a limit to the drug doses that can be tested in the social preference procedure, as induction of locomotor stimulant effects confounds preference assessments (because mice stop attending to the social stimuli in each compartment and instead spend their time engaged in locomotor behavior.) Motor activity varies across the distinct phases of social preference testing, in part because the habituation session is twice as long (30 minutes) as the novelty, sociability, and social novelty tests (15 minutes each), but also because mice emit high levels of exploratory behavior in novel environments. Thus, as familiarity with the test apparatus increases over successive exposures to the chambers, the number of entries decreases.
(Note that entries were collected for every test, but drug effects on entries during earlier phases may be less reliable due to the confounding influence of changing familiarity with the apparatus across phases.)

Data set [5] deals with C57 and BTBR mice. Briefly: Social preference procedure: sociability test. In kind it is in vivo, mouse. Particulars: 1 mg/kg IP. On the procedure:
as §1, §2, §3
A single sociability session occurred the day after the novelty preference test, where one compartment contained a wire mesh cup with a dummy mouse inside while the other compartment contained a male NIH Swiss stranger mouse inside the previously empty cup (see FIG. 4). […] The position of the dummy mouse (left or right compartment) remained the same for each subject as during the novelty test the day before, thereby counterbalancing the position of the stranger mouse across subjects. NIH Swiss stranger mice were similar in mass and appearance to the dummy PVC mice, and were housed separately from the experimental subjects (C57 and BTBR mice) in the colony facility. The first time the experimental subjects ever encountered the stranger mice was when they entered the compartment where they were contained. During this session, mice were weighed, administered the same injection as the day before, and returned to their home cage for a 30 min pretreatment period. Mice were then introduced into the T-junction and allowed to explore both preference compartments for 15 minutes. Sociability tests always occurred on Wednesdays or Thursdays to prevent any weekend testing.

In data set [6] the test system is C57 and BTBR mice. Briefly: Social preference procedure: novelty preference test. Type of data set: in vivo, mouse. Particulars: 1 mg/kg IP. On the procedure:
as §1, §2
as §3, with “afterwards. […]” for “afterwards.”

Where [7] appears, read: 3 mg/kg, x3 pairings, C57 and BTBR mice.

Regarding `c1cc2c(cc1CC1CCCN1)OCO2` (racemic) [(R/S)-I, (R/S)-2-[(2H-1,3-benzodioxol-5-yl)methyl]pyrrolidine], the “pro-social response (time with stranger mouse, social novelty preference)” value is listed as “strongest pro-social response” in data set [1] (1 mg/kg) and “the response drops” in data set [1] (1.8 mg/kg).

Regarding `CN[C@@H](C)Cc1ccccc1` [S-methamphetamine, reference compound], the “place conditioning (place preference)” value in data set [2] (1.0 and 3.0 mg/kg, x3 pairings, C57 and BTBR mice) is “significant place preferences in C57 mice only”.

Consider `CN[C@@H](C)Cc1ccc2c(c1)OCO2` [S-MDMA, reference compound], for which the “DAT/SERT (calculated)” value in data set [3] was 0.383. In addition, in data set [2] (setting [7]), the “place conditioning (place preference)” value is “significant place preferences”.

Consider `CNC(C)Cc1ccc2c(c1)OCO2` (racemic) [racemic MDMA, 1-(1,3-benzodioxol-5-yl)-N-methylpropan-2-amine, reference compound], for which, in data set [4], the “total entries during social novelty test” value is “no effect”. Moreover, the results for the “sociability (time spent with stranger mouse)” value in data set [5] (BTBR mice) and in data set [5] (C57 mice) were “minor increase in the sociability response” and “no impact”, respectively. In addition, in data set [6], the “effect on novelty preference (time spent with dummy mouse)” value was “no systematic effects”. Moreover, in data set [2] (setting [7]), the “place conditioning (place preference)” value was “significant place preferences”.

Take `CN[C@H](C)Cc1ccc2c(c1)OCO2` [R-MDMA, reference compound]: in data set [3], the “DAT/SERT (calculated)” value is 0.010. Further, in data set [2] (10 mg/kg, either strain), the “place conditioning (place preference)” value was “no significant effects”.
